Results from PubChem BioAssay (NCI).
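Protocol summary: plate cells (96-well), add compound at 5 concentrations, incubate 48 h, interpolate endpoints linearly. Here, GI50 denotes the concentration required for 50% inhibition of growth. TGI denotes the concentration required for complete inhibition of growth.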

Assays:
Assay in all cases: DTP human tumour cell line panel, 48 h
[1] = system: UACC-257 melanoma
[2] = system: RPMI-8226 leukemia
[3] = system: NCI/ADR-RES ovarian
[4] = system: LOX IMVI melanoma
[5] = system: BT-549 breast
[6] = system: A549 NSCLC
[7] = system: DU-145 prostate
[8] = system: SK-OV-3 ovarian
[9] = system: M14 melanoma
[10] = system: COLO 205 colon
[11] = system: CAKI-1 renal
[12] = system: UO-31 renal
[13] = system: SF-268 CNS
[14] = system: T-47D breast
[15] = system: HL-60(TB) leukemia
[16] = system: IGROV1 ovarian
[17] = system: SK-MEL-2 melanoma
[18] = system: SW-620 colon
[19] = system: SK-MEL-28 melanoma
[20] = system: SNB-75 CNS
[21] = system: RXF 393 renal
[22] = system: NCI-H23 lung
[23] = system: KM12 colon
[24] = system: SF-295 CNS
[25] = system: MALME-3M melanoma
[26] = system: HCT-116 colon
[27] = system: UACC-62 melanoma
[28] = system: OVCAR-8 ovarian
[29] = system: K-562 leukemia
[30] = system: EKVX NSCLC
[31] = system: CCRF-CEM leukemia
[32] = system: TK-10 renal
[33] = system: MDA-MB-435
[34] = system: ACHN renal
[35] = system: SR leukemia
[36] = system: HOP-62 NSCLC
[37] = system: U251 CNS
[38] = system: SNB-19 CNS
[39] = system: SF-539 CNS
[40] = system: NCI-H522 lung
[41] = system: NCI-H460 lung
[42] = system: HCT-15 colon
[43] = system: 786-0 renal
[44] = system: PC-3 prostate
[45] = system: MDA-MB-231 breast
[46] = system: MCF7 breast
[47] = system: SN12C renal
[48] = system: OVCAR-3 ovarian
[49] = system: HS 578T breast
[50] = system: HCC-2998 colon
[51] = system: HOP-92 NSCLC
[52] = system: MOLT-4 leukemia
[53] = system: SK-MEL-5 melanoma
[54] = system: A498 renal
[55] = system: OVCAR-5 ovarian
[56] = system: NCI-H226 lung
[57] = system: OVCAR-4 ovarian
[58] = system: HT29 colon

`COC1C(O)CC(OC2CC(OC3CC(O[C@@H]4C(=O)c5c(cc6cc(OC7CC(OC8CC(O)C(O)C(C)O8)C(O)C(C)O7)c(C)c(O)c6c5O)CC4[C@H](OC)[C@@H](O)C(C)=O)OC(C)C3O)OC(C)C2O)OC1C` (stereo not given in full) was tested, and the GI50 [1] was 18.7 nM, the TGI [1] was 92.3 nM and the GI50 [2] was 14 nM. The TGI [2] was > 33300 nM, the GI50 [3] was > 28200 nM and the TGI [3] was > 33300 nM. The GI50 [4] was 6.7 nM, the TGI [4] was 32.5 nM and the GI50 [5] was < 29.2 nM. The TGI [5] was 12500 nM, the GI50 [6] was 7.97 nM and the TGI [6] was > 33300 nM. For the same compound, the GI50 [7] was 12.7 nM, the TGI [7] was > 33300 nM and the GI50 [8] was 21.1 nM. For the same compound, the TGI [8] was > 33300 nM, the GI50 [9] was 20.2 nM and the TGI [9] was 3910 nM. The GI50 [10] was 11.3 nM, the TGI [10] was 63.9 nM and the GI50 [11] was 749 nM. The TGI [11] was > 33300 nM, the GI50 [12] was 31.5 nM and the TGI [12] was 11300 nM. For the same compound, the GI50 [13] was 15.5 nM, the TGI [13] was > 33300 nM and the GI50 [14] was 12.4 nM. The TGI [14] was 307 nM, the GI50 [15] was 23.6 nM and the TGI [15] was 6940 nM. For the same compound, the GI50 [16] was 19.7 nM, the TGI [16] was > 33300 nM and the GI50 [17] was 16.7 nM. For the same compound, the TGI [17] was 49.2 nM, the GI50 [18] was 12.5 nM and the TGI [18] was > 33300 nM. The GI50 [19] was 14 nM, the TGI [19] was 396 nM and the GI50 [20] was 18.4 nM. It also gave a TGI [20] of 3320 nM, a GI50 [21] of 15.2 nM and a TGI [21] of 364 nM. The GI50 [22] was 3.33 nM, the TGI [22] was 1120 nM and the GI50 [23] was 12.4 nM. For the same compound, the TGI [23] was > 33300 nM, the GI50 [24] was 7.52 nM and the TGI [24] was > 33300 nM. For the same compound, the GI50 [25] was 18.1 nM, the TGI [25] was 1280 nM and the GI50 [26] was 6.21 nM. The TGI [26] was > 33300 nM, the GI50 [27] was 9.77 nM and the TGI [27] was 36 nM. For the same compound, the GI50 [28] was 21.7 nM, the TGI [28] was > 33300 nM and the GI50 [29] was 16.3 nM. The TGI [29] was > 33300 nM, the GI50 [30] was 14 nM and the TGI [30] was > 33300 nM. The GI50 [31] was 23.3 nM, the TGI [31] was > 33300 nM and the GI50 [32] was 25.7 nM. The TGI [32] was > 33300 nM, the GI50 [33] was 15.6 nM and the TGI [33] was 7070 nM. The GI50 [34] was 25 nM, the GI50 [35] was 6.24 nM and the TGI [35] was 1650 nM. The GI50 [36] was 17.1 nM, the TGI [36] was 154 nM and the GI50 [37] was 12.5 nM. For the same compound, the TGI [37] was > 33300 nM, the GI50 [38] was 9.9 nM and the TGI [38] was > 33300 nM. The GI50 [39] was 9.02 nM, the TGI [39] was 463 nM and the GI50 [40] was 16 nM. The TGI [40] was 64.8 nM, the GI50 [41] was 6.73 nM and the TGI [41] was > 33300 nM. The GI50 [42] was 335 nM, the TGI [42] was > 33300 nM and the GI50 [43] was 21.9 nM. For the same compound, the TGI [43] was > 33300 nM, the GI50 [44] was 24.3 nM and the TGI [44] was > 33300 nM. The GI50 [45] was 51 nM, the TGI [45] was > 33300 nM and the GI50 [46] was 6.49 nM. The TGI [46] was > 33300 nM, the GI50 [47] was 19.2 nM and the TGI [47] was > 33300 nM. For the same compound, the GI50 [48] was 16.6 nM, the TGI [48] was 597 nM and the GI50 [49] was 30.7 nM. For the same compound, the TGI [49] was > 33300 nM, the GI50 [50] was 3.49 nM and the TGI [50] was 25.8 nM. For the same compound, the GI50 [51] was 32 nM, the TGI [51] was > 33300 nM and the GI50 [52] was 7.49 nM. The TGI [52] was 340 nM, the GI50 [53] was 9.93 nM and the TGI [53] was 39.2 nM. It also gave a GI50 [54] of 21.4 nM, a TGI [54] of 103 nM and a GI50 [55] of 30.9 nM. The TGI [55] was > 33300 nM, the GI50 [56] was 50.7 nM and the TGI [56] was 181 nM. For the same compound, the GI50 [57] was < 28.2 nM, the TGI [57] was > 23900 nM and the GI50 [58] was 9.95 nM. The TGI [58] was 29.5 nM.
